Laboratory results: patent US9771378B2 (Denali Therapeutics, Inc., priority 2014, dated 2017)
pIC50: −log10 of the molar value.

Test system: Aβ42 (human neuroglioma H4 cells expressing human wild type APP751)
Experiment: In vitro cell screening assay with sandwich ELISA quantification of Aβ42 peptide
Type: cell-based
Conditions: H4 cells stably expressing human wild type APP751; Pro293 chemically defined medium; compounds 0.003-10 μM; incubated overnight (16-18 h); supernatant Aβ42 by sandwich ELISA; normalized to DMSO and DAPT; read-out: Aβ42 H4 Prot Fre IC50
Procedure, shortened: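 H4 neuroglioma cells stably expressing human wild-type APP751 were treated in Pro293 medium with compounds (0.003-10 μM, 0.33% DMSO) for 16-18 h at 37° C. Secreted Aβ42 measured by sandwich ELISA (C-terminal capture, 4G8-HRP detection, TMB, 450 nm). IC50 by variable-slope sigmoidal regression on percent of DMSO control.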

Q: How did the pIC50 turn out when COc1cc(Nc2ncc3c(n2)N(C)C(c2cc(F)cc(F)c2)CO3)cnc1-n1cnc(C(F)(F)F)c1 (single isomer, unassigned; (+)) [Example 206A] was run?
A: Its pIC50 is 7.57.

Q: With COc1ccc(C)c(C2COc3cnc(Nc4cnc(-n5cnc(C)c5)c(OC)c4)nc3N2C)c1 (single isomer, unassigned; (+)) [Example 207A] as the compound, how does the pIC50 read?
A: Its pIC50 is 8.00.

Q: How did the pIC50 turn out when COc1ccc(Cl)c(C2COc3cnc(Nc4cnc(-n5cnc(C)c5)c(OC)c4)nc3N2C)c1 (single isomer, unassigned; (+)) [Example 208A] was run?
A: The pIC50 was 7.70.

Q: With COc1ccc(C2COc3cnc(Nc4cnc(-n5cnc(C)c5)c(OC)c4)nc3N2C)c(Cl)c1 (single isomer, unassigned; (+)) [Example 209A] as the compound, how does the pIC50 read?
A: The pIC50 was 7.68.

Q: With Cc1cn(-c2ncc(Nc3ncc4c(n3)N(C)C(c3cc(F)cc(F)c3)CO4)cc2Cl)cn1 (single isomer, unassigned; (+)) [Example 210A] as the compound, how does the pIC50 read?
A: The pIC50 was 7.39.

Q: With COc1cc(Nc2ncc3c(n2)N(C)C(c2cc(F)cc(F)c2)CO3)cnc1-n1cnc(C#N)c1 (single isomer, unassigned; (+)) [Example 211A, (+)-1-(5-((7-(3,5-difluorophenyl)-8-methyl-7,8-dihydro-6H-pyrimido [5,4-b] [1, 4]oxazin-2-yl)amino)-3-methoxypyridin-2-yl)-1H-imidazole-4-carbonitrile] as the compound, how does the pIC50 read?
A: Its pIC50 is 6.75.

Q: With COc1cc(Nc2ncc3c(n2)N(C)C(C2CC(F)(F)C2)CO3)ccc1-n1cnc(C)c1 (single isomer, unassigned; (+)) [Example 212B] as the compound, how does the pIC50 read?
A: Its pIC50 is 7.21.

Q: Cc1cn(-c2ccc(Nc3ncc4c(n3)N(C)C(C)CO4)cc2OC(F)(F)F)cn1 (single isomer, unassigned; (+)) [Example 213B] was tested. Which pIC50 did it give?
A: Its pIC50 is less than 5.52.

Q: How did the pIC50 turn out when Cc1cn(-c2ccc(Nc3ncc4c(n3)N(C)C(C)CO4)cc2C(F)F)cn1 (single isomer, unassigned; (+)) [Example 214A] was run?
A: The pIC50 was less than 5.52.

Q: With COc1ccc(C2COc3cnc(Nc4cnc(-n5cnc(C)c5)c(OC)c4)nc3N2C)c(C)c1 (single isomer, unassigned; (+)) [Example 215A] as the compound, how does the pIC50 read?
A: Its pIC50 is 7.80.

Q: How did the pIC50 turn out when COc1cc(Nc2ncc3c(n2)N(C)C(C2CCC(F)(F)CC2)CO3)ccc1-n1cnc(C)c1 (single isomer, unassigned; (+)) [Example 216B] was run?
A: Its pIC50 is 7.48.

Q: How did the pIC50 turn out when COc1cc(Nc2ncc3c(n2)N(C)C(C2CC(F)(F)C2)CO3)cnc1-n1cnc(C)c1 (single isomer, unassigned; (+)) [Example 219A] was run?
A: The pIC50 was 7.60.

Q: How did the pIC50 turn out when COc1cc(Nc2ncc3c(n2)N(C)C(c2cc(F)cc(F)c2)CO3)ncc1-n1cnc(C)c1 (single isomer, unassigned; (+)) [Example 220B] was run?
A: The pIC50 was 7.36.

Q: How did the pIC50 turn out when COc1cc(Nc2ncc3c(n2)N(C)C(C2CCC(F)(F)CC2)CO3)cnc1-n1cnc(C)c1 (single isomer, unassigned; (+)) [Example 221A] was run?
A: The pIC50 was 7.62.

Q: Cc1cn(-c2ccc(Nc3ncc4c(n3)N(C)C(c3cc(F)cc(F)c3)CO4)cc2C(F)F)cn1 (single isomer, unassigned; (+)) [Example 222A] was tested. Which pIC50 did it give?
A: Its pIC50 is 6.44.

Q: Cc1cn(-c2ccc(Nc3ncc4c(n3)N(C)C(c3cc(F)cc(F)c3)CO4)cc2OC(F)(F)F)cn1 (single isomer, unassigned; (+)) [Example 223B] was tested. Which pIC50 did it give?
A: The pIC50 was less than 5.52.

Q: With CN1c2nc(Nc3ccc(C#N)cc3)ncc2OCC1C(F)(F)F (single isomer, unassigned; (+)) [Example 226A, (+)-4-((8-methyl-7-(trifluoromethyl)-7,8-dihydro-6H-pyrimido [5,4-b] [1, 4]oxazin-2-yl)amino) benzonitrile] as the compound, how does the pIC50 read?
A: Its pIC50 is less than 5.52.

Q: COc1cc(Nc2ncc3c(n2)N(C)C(C(F)(F)F)CO3)ccc1-n1cnc(Cl)c1 (single isomer, unassigned; (+)) [Example 228A] was tested. Which pIC50 did it give?
A: The pIC50 was 6.48.

Q: Cc1cn(-c2ncc(Nc3ncc4c(n3)N(C)C(C(F)(F)F)CO4)cc2Cl)cn1 (single isomer, unassigned; (+)) [Example 229B] was tested. Which pIC50 did it give?
A: The pIC50 was 5.55.

Q: COc1cc(Nc2ncc3c(n2)N(C)C(C(F)(F)F)CO3)ccc1C#N (single isomer, unassigned; (+)) [Example 230A, (+)-2-methoxy-4-((8-methyl-7-(trifluoromethyl)-7,8-dihydro-6H-pyrimido [5,4-b] [1, 4]oxazin-2-yl)amino) benzonitrile] was tested. Which pIC50 did it give?
A: The pIC50 was less than 5.52.

Q: With COc1cc(Nc2ncc3c(n2)N(C)C(C2CCC(F)(F)CC2)CO3)cnc1-c1cnn(C)c1 (single isomer, unassigned; (+)) [Example 231A] as the compound, how does the pIC50 read?
A: Its pIC50 is 6.47.

Q: Cc1cn(-c2ccc(Nc3ncc4c(n3)N(C)C(C(F)(F)F)CO4)cc2C#N)cn1 (single isomer, unassigned; (+)) [Example 232A, (+)-2-(4-methyl-1H-imidazol-1-yl)-5-((8-methyl-7-(trifluoromethyl)-7,8-dihydro-6H-pyrimido [5,4-b] [1, 4]oxazin-2-yl)amino) benzonitrile] was tested. Which pIC50 did it give?
A: The pIC50 was 6.55.

Q: With CN1c2nc(Nc3ccc(C#N)cc3)ncc2OCC1c1cc(F)cc(F)c1 (single isomer, unassigned; (+)) [Example 233A, (+)-4-((7-(3,5-difluorophenyl)-8-methyl-7,8-dihydro-6H-pyrimido [5,4-b] [1, 4]oxazin-2-yl)amino) benzonitrile] as the compound, how does the pIC50 read?
A: The pIC50 was 6.05.

Q: COc1cc(Nc2ncc3c(n2)N(C)C(C(F)(F)F)CO3)ncc1-n1cnc(C)c1 (single isomer, unassigned; (+)) [Example 236A] was tested. Which pIC50 did it give?
A: Its pIC50 is less than 5.52.

Q: COc1cc(Nc2ncc3c(n2)N(C)C(c2cc(F)cc(F)c2)CO3)ccc1C#N (single isomer, unassigned; (+)) [Example 237B, (+)-4-((7-(3,5-difluorophenyl)-8-methyl-7,8-dihydro-6H-pyrimido [5,4-b] [1, 4]oxazin-2-yl)amino)-2-methoxybenzonitrile] was tested. Which pIC50 did it give?
A: Its pIC50 is 6.65.

Q: With COc1cc(Nc2ncc3c(n2)N(C)C(CC(F)(F)F)CO3)cnc1-n1cnc(C)c1 (single isomer, unassigned; (+)) [Example 238B] as the compound, how does the pIC50 read?
A: The pIC50 was 7.18.

Q: How did the pIC50 turn out when COc1cc(Nc2ncc3c(n2)N(C)C(C2CCS(=O)(=O)CC2)CO3)ccc1-n1cnc(C)c1 (single isomer, unassigned; (+)) [Example 239B, (+)-4-(2-((3-methoxy-4-(4-methyl-1H-imidazol-1-yl)phenyl)amino)-8-methyl-7,8-dihydro-6H-pyrimido [5,4-b] [1, 4]oxazin-7-yl) tetrahydro-2H-thiopyran 1,1-dioxide] was run?
A: Its pIC50 is 6.42.

Q: COc1cc(Nc2ncc3c(n2)N(C)C(C2COC2)CO3)ccc1-n1cnc(C)c1 (single isomer, unassigned; (+)) [Example 241B] was tested. Which pIC50 did it give?
A: The pIC50 was 6.47.

Q: With COc1cc(Nc2ncc3c(n2)N(C)C(C(F)(F)F)CO3)ccc1-n1cnc(C)n1 (single isomer, unassigned; (+)) [Example 242B] as the compound, how does the pIC50 read?
A: The pIC50 was 5.73.

Q: How did the pIC50 turn out when COc1cc(Nc2ncc3c(n2)N(C)C(C2COC2)CO3)cnc1-n1cnc(C)c1 (single isomer, unassigned; (+)) [Example 243A] was run?
A: The pIC50 was 6.22.

Q: How did the pIC50 turn out when COc1cc(Nc2ncc3c(n2)N(C)C(c2cc(F)cc(F)c2)CO3)ccc1-n1cnc(C)n1 (single isomer, unassigned; (+)) [Example 244A] was run?
A: The pIC50 was 7.64.

Q: With COc1cc(Nc2ncc3c(n2)N(C)C(C2(C(F)(F)F)CC2)CO3)ccc1-n1cnc(C)c1 (single isomer, unassigned; (+)) [Example 245B] as the compound, how does the pIC50 read?
A: Its pIC50 is 7.66.

Q: How did the pIC50 turn out when COc1cc(Nc2ncc3c(n2)N(C)C(C2(C(F)(F)F)CC2)CO3)cnc1-n1cnc(C)c1 (single isomer, unassigned; (+)) [Example 247B] was run?
A: The pIC50 was 8.30.

Q: COc1cc(Nc2ncc3c(n2)N2CCCC2CO3)ccc1-n1cnc(C)c1 (single isomer, unassigned; (+)) [Example 290B, (+)-N-(3-methoxy-4-(4-methyl-1H-imidazol-1-yl)phenyl)-6a, 7,8,9-tetrahydro-6H-pyrimido [5,4-b] pyrrolo [1,2-d] [1, 4] oxazin-2-amine] was tested. Which pIC50 did it give?
A: Its pIC50 is 6.82.

Q: COc1cc(Nc2ncc3c(n2)N2C(=O)CCC2CO3)cnc1-n1cnc(C)c1 (single isomer, unassigned; (+)) [Example 302A, (+)-2-((5-methoxy-6-(4-methyl-1H-imidazol-1-yl)pyridin-3-yl)amino)-6,6a, 7,8-tetrahydro-9H-pyrimido [5,4-b] pyrrolo [1,2-d] [1, 4] oxazin-9-one] was tested. Which pIC50 did it give?
A: Its pIC50 is less than 5.52.

Q: How did the pIC50 turn out when COc1cc(Nc2ncc3c(n2)N2CCC(F)(F)C2CO3)ccc1-n1cnc(C)c1 (single isomer, unassigned; (+)) [Example 304B, (+)-7,7-difluoro-N-(3-methoxy-4-(4-methyl-1H-imidazol-1-yl)phenyl)-6a, 7,8,9-tetrahydro-6H-pyrimido [5,4-b] pyrrolo [1,2-d] [1, 4] oxazin-2-amine] was run?
A: Its pIC50 is 7.12.

Q: COc1cc(Nc2ncc3c(n2)N2CCC(F)(F)C2CO3)cnc1-n1cnc(C)c1 (single isomer, unassigned; (+)) [Example 305A, (+)-7,7-difluoro-N-(5-methoxy-6-(4-methyl-1H-imidazol-1-yl)pyridin-3-yl)-6a, 7,8,9-tetrahydro-6H-pyrimido [5,4-b] pyrrolo [1,2-d] [1, 4] oxazin-2-amine] was tested. Which pIC50 did it give?
A: The pIC50 was 6.88.

Q: How did the pIC50 turn out when Cc1cn(-c2ccc(Nc3ncc4c(n3)N(C)C(c3cc(F)cc(F)c3)CO4)cc2)cn1 (single isomer, unassigned; (-)) [Example 23A] was run?
A: Its pIC50 is 5.69.

Q: How did the pIC50 turn out when Cc1cc(-c2ccc(Nc3ncc4c(n3)N(C)C(c3ccccc3)CO4)cc2)ccn1 (single isomer, unassigned; (-)) [Example 24B] was run?
A: Its pIC50 is 5.99.

Q: How did the pIC50 turn out when Cc1cn(-c2ccc(Nc3ncc4c(n3)N(C)C(c3ccccc3)CO4)cc2F)cn1 (single isomer, unassigned; (-)) [Example 25B] was run?
A: The pIC50 was 6.48.

Q: Cc1cn(-c2ccc(Nc3ncc4c(n3)N(C)C(c3ccccc3)CO4)cc2)cn1 (single isomer, unassigned; (-)) [Example 26B] was tested. Which pIC50 did it give?
A: The pIC50 was 5.50.

Q: With Cc1cc(-c2ccc(Nc3ncc4c(n3)N(C)C(c3ccccc3)CO4)cc2F)ccn1 (single isomer, unassigned; (-)) [Example 27B] as the compound, how does the pIC50 read?
A: Its pIC50 is 5.68.
